Measured values reported in patent US20090258824A1, “Amyloid beta receptor and uses thereof” (priority 2005, published 2009).

Test system: cultured cortical neurons
Assay: Calcium imaging (Fluo-4) in cultured cortical neurons
Assay type: cell-based, rat (Sprague Dawley)
Details: antagonist co-applied with Aβ*56
Protocol: Cultured neurons. Cultures of cortical neurons from P1 Sprague Dawley rat pups were prepared according to previously published protocols (Dubinsky, J Neurosci 13, 623-631 (1993)). Dissections of cortical mantels excluded meninges, hippocampus, septal regions, and basal ganglia. […]
Size-exclusion chromatography (SEC). […] Fractions of 500 μl of eluate in 50 mM Ammonium Acetate, pH 8.5, were diluted 1:100 or 1:750 in neurophysiology experiments, or were concentrated using a vacuum system (VacuFuge™, Brinkmann-Eppendorf) and analyzed by silver staining.
Calcium imaging. […] Calcium indicator dye fluorescence was monitored with 488 nanometer (nm) excitation, a 500 nm long-pass barrier filter and confocal microscopy (Odyssey scanner, Noran, Middleton, Wis.). […] To quantify neuronal Ca^2+ responses, Ca^2+ fluorescence was measured from single neurons or clusters of neurons. Baseline fluorescence was normalized to one and the area between the curve and the baseline calculated using Origin software analysis routines (OriginLab Corporation, Northampton, Mass.).

SMILES	effect on the Aβ*56-induced increase in Ca2+ signal
O=C(O)C1CN(CCCP(=O)(O)O)CCN1 (racemic) [CPP, (+/−)-3-(2-carboxypiperazin-4-yl)-propyl-1-phosphonic acid]	completely abolished
CCC(N)(C(=O)O)c1ccc(C(=O)O)cc1 (racemic) [E4CPG, (RS)-α-Ethyl-4-carboxyphenylglycine]	failed to block
